Assay results published in publication PMC4492822 (EMBO Molecular Medicine, 2015).

Key:
[1] = Toxicology in SCID mice (histopathology, blood values); assay type: in vivo
Procedure: Figure 5 Toxicity studies of RK-33 in mice • Following injection of 20 mg/kg of RK-33, twice a week for 7 weeks, extensive histopathological examination was carried out following necropsy. Identical patterns were observed both in the control and in the treated mice (n = 2). Samples were stained with H&E. Scale bar is 50 μm. • Pharmacokinetics of RK-33 in SCID mice at various time intervals. Results are mean ± SD from 5 mice. LC-MS/MS method was used to determine concentration of RK-33 in mouse plasma and tissue. • Liquid chromatography–mass spectrometry (LC-MS/MS) analysis was performed to determine different metabolites of RK-33. • RK-33 and metabolites characterized by LC-MS/MS in human liver microsomes using the scan mode function of the LC-MS/MS. • HAPI cells were treated with RK-33 (10 μM), HA14-1 (25 μM), or DMSO vehicle, followed by oligomycin (oligo, 0.5 μg/ml), FCCP (3 μM), and antimycin A (AA, 1 μM) while oxygen consumption rate (OCR) was measured. Pyruvate (10 mM) was added in combination with FCCP to ensure that substrate supply was not rate-limiting for maximal OCR. Data are mean ± SD from 2 to 3 wells and representative of independent experiments performed with two different HAPI passages. OCR is baseline-normalized to the point prior to drug or vehicle addition. • HAPI microglial cells were incubated for 1 h in glucose-free XF24 assay medium that was supplemented with 2-deoxyglucose (50 mM) and pyruvate (10 mM). RK-33 (10 μM), oligomycin (0.5 μg/ml), or vehicle control was additionally present as indicated. Results are mean ± SD from 12 replicates pooled from experiments using two consecutive passages. Significance was assessed by two-sided, unpaired t-test. TEXT PRINTED IN THE PICTURE: (B) RK-33: t½e (hours): 7.31 ± 1.16 (Organ: plasma); t½e (hours): 6.70 ± 1.17 (Organ: kidney); t½e (hours): 10.01 ± 1.24 (Organ: liver); t½e (hours): 8.92 ± 1.45 (Organ: spleen); t½e (hours): 7.48 ± 1.18 (Organ: breast); t½e (hours): 7.25 ± 1.25 (Organ: lung); t½e (hours): 6.72 ± 1.23 (Organ: brain); t½e (hours): 6.25 ± 1.19 (Organ: muscle) | (C) RK-33: Mouse Microsomes + NADPH: 100% (Inc. Time: 0); Mouse Microsomes - NADPH: 100% (Inc. Time: 0); Human Microsomes + NADPH: 100% (Inc. Time: 0); Human Microsomes - NADPH: 100% (Inc. Time: 0); Mouse Microsomes + NADPH: 11% (Inc. Time: 30); Mouse Microsomes - NADPH: 80% (Inc. Time: 30); Human Microsomes + NADPH: 49% (Inc. Time: 30); Human Microsomes - NADPH: 85% (Inc. Time: 30); Mouse Microsomes + NADPH: 4% (Inc. Time: 60); Mouse Microsomes - NADPH: 69% (Inc. Time: 60); Human Microsomes + NADPH: 35% (Inc. Time: 60); Human Microsomes - NADPH: 73% (Inc. Time: 60) DOUBTS OF THE COPYIST ABOUT THIS PICTURE: Panel C prints no substance label of its own; RK-33 is taken from the other panels of the same picture / Panel C prints no unit for Inc. Time / Panel B, column head: read as t½e (hours), small print; the sign after t may be 1/2 e / Panel D (retention times and [M+H]+ of RK-33 and peaks M1-M3) was left out as LC-MS data

[2] = system: Twist1/Kras^G12D lung tumors; assay: Twist1/KrasG12D autochthonous lung tumor model, hypofractionated radiation (SABR); assay type: in vivo, mouse
Procedure: Inducible Twist1/Kras^G12D transgenic mice in the FVB/N inbred background were of the genotype: CCSP-rtTA/tetO-KrasG12D/Twist1-tetO-luc (Tran et al, [2012]). All the mice were weaned 3–4 weeks of age and then placed on dox at 4–6 weeks of age. Mice were treated with similar levels of tumor burden per micro-CT and were typically 20–30 weeks old. Mice were treated as in Fig6C and H. Each group consisted of mice, of which multiple index tumors were followed in time by micro-CT and quantified by a board-certified radiation oncologist (JZ) in a blinded fashion. Bi-dimensional measurements were made on tumors using serial examinations and tumor volumes calculated using the equation Volume = π/6 × 1.65 (length × width) × 3/2. Volumes were normalized to the starting volume, t = 0 before treatment. For 15-Gy SABR experiments, the breakdown of animal usage is (1) RT = 3 female mice, (2) RK-33 = 3 females and 1 male mice, (3) carboplatin = 3 male mice, (4) RT + carboplatin = 3 female mice, and (5) RT + RK-33 = 5 female mice. For the 3-Gy XRT experiments, animals used were (1) RT = 3 female and three male mice and (2) RT + RK-33 = four female and three male mice.
Cells were irradiated at room temperature with 0.5 Gy/min to the desired dose using a Gammacell 40 ^137Cs irradiator. For in vivo experiments, mice were treated using the Small Animal Radiation Research Platform (Wong et al, [2008]). The tumors were irradiated with a circular beam of 1 cm diameter.
The mice underwent micro-CT imaging by use of the Small Animal Radiation Research Platform (SARRP) irradiator described earlier (Wong et al, [2008]). The uncollimated primary beam was used for imaging. A total of 1,800 projections were acquired at approximately 0.2 angular increments. The Feldkamp CBCT algorithm was used for reconstruction. Tumor volumes were quantified from the CT dataset with Pinnacle3 software v.8.1y (Philips Inc, Madison, WI) as described previously (Tran et al, [2011]; Zeng et al, [2013]). Briefly, we viewed 2D images in sagittal, coronal, and transverse views to detect tumors and track them over time. […]

With “diimidazo[4,5-d:4′,5′-f]-[1,3]diazepine [RK-33]” the “toxicity at the dose used” value ([1]; SCID mice) was “non-toxic”, the ALP ([1]; mouse, in vivo) was 69 ± 5 U/l and the ALT ([1]; mouse, in vivo) was 72 ± 34 U/l. For the same substance, the AST ([1]; mouse, in vivo) was 224 ± 152 U/l, the Albumin ([1]; mouse, in vivo) was 3.05 ± 0.05 g/dL and the Amylase ([1]; mouse, in vivo) was 905 ± 42 U/l. For the same substance, the BUN ([1]; mouse, in vivo) was 22 ± 2.0 mg/dL, the Calcium ([1]; mouse, in vivo) was 9.1 ± 0.2 mg/dL and the Cholesterol ([1]; mouse, in vivo) was 120 ± 1 mg/dL. The Creatinine ([1]; mouse, in vivo) was 0.35 ± 0.05 mg/dL, the Glucose ([1]; mouse, in vivo) was 166 ± 4 mg/dL and the Hb ([1]; mouse, in vivo) was 14.7 ± 0.6 g/dL. The MCV ([1]; mouse, in vivo) was 55.1 ± 1.3 fL, the RBC ([1]; mouse, in vivo) was 10.01 ± 0.77 M/μl and the Thrombocytes ([1]; mouse, in vivo) was 746 ± 185 K/μl. For the same substance, the Triglycerides ([1]; mouse, in vivo) was 215 ± 14 mg/dL, the WBC ([1]; mouse, in vivo) was 5.83 ± 2.61 K/μl and the “Ki67 positive cells in lung tumors” value ([2]; RK-33 and radiation treatment) was “decrease in Ki67 positive cells”. The “enhancement of the radiation effect (tumor volume by micro-CT)” value ([2]; i.p. RK-33 with 15-Gy SABR, 1 week after treatment) was 3.7 fold and the “radiation sensitization relative to that caused by carboplatin” value ([2]; with SABR) was 1.5 fold.
